US9661853B2, “Molecules having pesticidal utility, and intermediates, compositions, and processes, related thereto” (Dow AgroSciences LLC, priority 2015, dated 2017)

Legend:
[1] = test system: Beet Armyworm (Spodoptera exigua, LAPHEG); assay: Bioassay on Beet Armyworm (BAW), 128-well diet tray assay; format: in vivo; conditions: 168 h, 50 μg/cm^2 on artificial diet, second instar larvae, 25° C., five to seven days, average of eight wells, read-out: BAW % Control (or Mortality) rating
Description: (§1) Bioassays on Beet Armyworm (Spodoptera exigua, LAPHEG) (“BAW”) and Cabbage Looper (Trichoplusia ni, TRIPNI) (“CL”)
(§2) Certain molecules disclosed in this document were tested against BAW and CL using procedures described in the following examples. In the reporting of the results, the “BAW & CL Rating Table” was used (See Table Section).
Bioassays on BAW were conducted using a 128-well diet tray assay. One to five second instar BAW larvae were placed in each well (3 mL) of the diet tray that had been previously filled with 1 mL of artificial diet to which 50 μg/cm^2 of the test molecule (dissolved in 50 μL of 90:10 acetone-water mixture) had been applied (to each of eight wells) and then allowed to dry. Trays were covered with a clear self-adhesive cover, vented to allow gas exchange, and held at 25° C., 14:10 light-dark for five to seven days. Percent mortality was recorded for the larvae in each well; activity in the eight wells was then averaged. The results are indicated in the table entitled “Table ABC: Biological Results” (See Table Section).

[2] = test system: Cabbage Looper (Trichoplusia ni, TRIPNI); assay: Bioassay on Cabbage Looper (CL), 128-well diet tray assay; format: in vivo; conditions: 168 h, 50 μg/cm^2 on artificial diet, second instar larvae, 25° C., five to seven days, average of eight wells, read-out: CL % Control (or Mortality) rating
Description: as §1, §2
Bioassays on CL were conducted using a 128-well diet tray assay. One to five second instar CL larvae were placed in each well (3 mL) of the diet tray that had been previously filled with 1 mL of artificial diet to which 50 μg/cm^2 of the test molecule (dissolved in 50 μL of 90:10 acetone-water mixture) had been applied (to each of eight wells) and then allowed to dry. Trays were covered with a clear self-adhesive cover, vented to allow gas exchange, and held at 25° C., 14:10 light-dark for five to seven days. Percent mortality was recorded for the larvae in each well; activity in the eight wells was then averaged. The results are indicated in the table entitled “Table ABC: Biological Results” (See Table Section).

melting point [°C]	Compound	mortality at 50 µg/cm2 [1] [%]	mortality at 50 µg/cm2 [2] [%]
236 to 238	Cc1ccc(C(C)C)c(N2C(=O)CS/C2=N\C(=O)Nc2ccc(CNc3ncn(-c4ccc(OC(F)(F)F)cc4)n3)cc2F)c1		
	COCc1ccc(C)cc1N1C(=O)CS/C1=N\C(=O)Nc1ccc(CN(C)c2ncn(-c3ccc(OC(F)(F)F)cc3)n2)c(Cl)c1 [F18, (Z)-1-(3-Chloro-4-((methyl(1-(4-(trifluoromethoxy)phenyl)-1H-1,2,4-triazol-3-yl)amino)methyl)phenyl)-3-(3-(2-(methoxymethyl)-5-methylphenyl)-4-oxothiazolidin-2-ylidene)urea]	0 to 50	0 to 50
	Cc1ccc(C(C)C)c(N2C(=O)CS/C2=N\C(=O)Nc2ccc(CN(C)c3ncn(-c4ccc(OC(F)(F)F)cc4)n3)cn2)c1 [F16, (Z)-1-(3-(2-Isopropyl-5-methylphenyl)-4-oxothiazolidin-2-ylidene)-3-(5-((methyl(1-(4-(trifluoromethoxy)phenyl)-1H-1,2,4-triazol-3-yl)amino)methyl)pyridin-2-yl)urea]	50 to 100	50 to 100
	COCc1ccc(C)cc1N1C(=O)CS/C1=N\C(=O)Nc1ccc(NCc2ncn(-c3ccc(OC(F)(F)F)cc3)n2)cc1Cl [F42, (Z)-1-(2-Chloro-4-(((1-(4-(trifluoromethoxy)phenyl)-1H-1,2,4-triazol-3-yl)methyl)amino)phenyl)-3-(3-(2-(methoxymethyl)-5-methylphenyl)-4-oxothiazolidin-2-ylidene)urea]	50 to 100	50 to 100
	CCCc1ccc(C)cc1N1C(=O)CS/C1=N\C(=O)Nc1ccc(CNc2ncn(-c3ccc(OC(F)(F)F)cc3)n2)cn1 [F12, (Z)-1-(3-(5-Methyl-2-propylphenyl)-4-oxothiazolidin-2-ylidene)-3-(5-(((1-(4-(trifluoromethoxy)phenyl)-1H-1,2,4-triazol-3-yl)amino)methyl)pyridin-2-yl)urea]	50 to 100	50 to 100
	COCc1ccc(C)cc1N1C(=O)CS/C1=N\C(=O)Nc1ccc(NCc2ncn(-c3ccc(OC(F)(F)F)cc3)n2)c(F)c1 [F36, (Z)-1-(3-Fluoro-4-(((1-(4-(trifluoromethoxy)phenyl)-1H-1,2,4-triazol-3-yl)methyl)amino)phenyl)-3-(3-(2-(methoxymethyl)-5-methylphenyl)-4-oxothiazolidin-2-ylidene)urea]	50 to 100	50 to 100
	Cc1ccc(C(C)C)c(N2C(=O)CS/C2=N\C(=O)Nc2ccc(CN(C)c3ncn(-c4ccc(OC(F)(F)F)cc4)n3)cc2)c1 [F24, (Z)-1-(3-(2-Isopropyl-5-methylphenyl)-4-oxothiazolidin-2-ylidene)-3-(4-((methyl(1-(4-(trifluoromethoxy)phenyl)-1H-1,2,4-triazol-3-yl)amino)methyl)phenyl)urea]	50 to 100	50 to 100
	Cc1ccc(C(C)C)c(N2C(=O)CS/C2=N\C(=O)Nc2ccc(CN(C)c3ncn(-c4ccc(OC(F)(F)F)cc4)n3)cc2F)c1 [F22, (Z)-1-(2-Fluoro-4-((methyl(1-(4-(trifluoromethoxy)phenyl)-1H-1,2,4-triazol-3-yl)amino)methyl)phenyl)-3-(3-(2-isopropyl-5-methylphenyl)-4-oxothiazolidin-2-ylidene)urea]	50 to 100	50 to 100
	Cc1ccc(C(C)C)c(N2C(=O)CS/C2=N\C(=O)Nc2ccc(NCc3ncn(-c4ccc(OC(F)(F)F)cc4)n3)c(F)c2)c1 [F34, (Z)-1-(3-Fluoro-4-(((1-(4-(trifluoromethoxy)phenyl)-1H-1,2,4-triazol-3-yl)methyl)amino)phenyl)-3-(3-(2-isopropyl-5-methylphenyl)-4-oxothiazolidin-2-ylidene)urea]	50 to 100	50 to 100
	Cc1ccc(C(C)C)c(N2C(=O)CS/C2=N\C(=O)Nc2ccc(CN(C)c3ncn(-c4ccc(OC(F)(F)F)cc4)n3)c(Cl)c2)c1 [F20, (Z)-1-(3-Chloro-4-((methyl(1-(4-(trifluoromethoxy)phenyl)-1H-1,2,4-triazol-3-yl)amino)methyl)phenyl)-3-(3-(2-isopropyl-5-methylphenyl)-4-oxothiazolidin-2-ylidene)urea]	0 to 50	50 to 100
	CCCc1ccc(C)cc1N1C(=O)CS/C1=N\C(=O)Nc1ccc(NCc2ncn(-c3ccc(OC(F)(F)F)cc3)n2)cc1Cl [F41, (Z)-1-(2-Chloro-4-(((1-(4-(trifluoromethoxy)phenyl)-1H-1,2,4-triazol-3-yl)methyl)amino)phenyl)-3-(3-(5-methyl-2-propylphenyl)-4-oxothiazolidin-2-ylidene)urea]	50 to 100	50 to 100
	COCc1ccc(C)cc1N1C(=O)CS/C1=N\C(=O)Nc1ccc(NCc2ncn(-c3ccc(OC(F)(F)F)cc3)n2)c(OC)c1 [F39, (Z)-1-(3-Methoxy-4-(((1-(4-(trifluoromethoxy)phenyl)-1H-1,2,4-triazol-3-yl)methyl)amino)phenyl)-3-(3-(2-(methoxymethyl)-5-methylphenyl)-4-oxothiazolidin-2-ylidene)urea]	50 to 100	50 to 100
	CCCc1ccc(C)cc1N1C(=O)CS/C1=N\C(=O)Nc1ccc(CN(C)c2ncn(-c3ccc(OC(F)(F)F)cc3)n2)c(Cl)c1 [F19, (Z)-1-(3-Chloro-4-((methyl(1-(4-(trifluoromethoxy)phenyl)-1H-1,2,4-triazol-3-yl)amino)methyl)phenyl)-3-(3-(5-methyl-2-propylphenyl)-4-oxothiazolidin-2-ylidene)urea]	0	0
174 to 176	CCCc1ccc(C)cc1N1C(=O)CS/C1=N\C(=O)Nc1ccc(CN(C)c2ncn(-c3ccc(OC(F)(F)F)cc3)n2)cc1F		
	Cc1ccc(C(C)C)c(N2C(=O)CS/C2=N\C(=O)Nc2ccc(CNc3ncn(-c4ccc(OC(F)(F)F)cc4)n3)c(Cl)c2)c1 [F7, (Z)-1-(3-Chloro-4-(((1-(4-(trifluoromethoxy)phenyl)-1H-1,2,4-triazol-3-yl)amino)methyl)phenyl)-3-(3-(2-isopropyl-5-methylphenyl)-4-oxothiazolidin-2-ylidene)urea]	50 to 100	50 to 100
	COCc1ccc(C)cc1N1C(=O)CS/C1=N\C(=O)Nc1ccc(NCc2ncn(-c3ccc(OC(F)(F)F)cc3)n2)cc1F [F33, (Z)-1-(2-Fluoro-4-(((1-(4-(trifluoromethoxy)phenyl)-1H-1,2,4-triazol-3-yl)methyl)amino)phenyl)-3-(3-(2-(methoxymethyl)-5-methylphenyl)-4-oxothiazolidin-2-ylidene)urea]	50 to 100	50 to 100
	Cc1ccc(C(C)C)c(N2C(=O)CS/C2=N\C(=O)Nc2ccc(NCc3ncn(-c4ccc(OC(F)(F)F)cc4)n3)cc2F)c1 [F31, (Z)-1-(2-Fluoro-4-(((1-(4-(trifluoromethoxy)phenyl)-1H-1,2,4-triazol-3-yl)methyl)amino)phenyl)-3-(3-(2-isopropyl-5-methylphenyl)-4-oxothiazolidin-2-ylidene)urea]	50 to 100	50 to 100
	CCCc1ccc(C)cc1N1C(=O)CS/C1=N\C(=O)Nc1ccc(NCc2ncn(-c3ccc(OC(F)(F)F)cc3)n2)c(F)c1 [F35, (Z)-1-(3-Fluoro-4-(((1-(4-(trifluoromethoxy)phenyl)-1H-1,2,4-triazol-3-yl)methyl)amino)phenyl)-3-(3-(5-methyl-2-propylphenyl)-4-oxothiazolidin-2-ylidene)urea]	50 to 100	50 to 100
	COC(C)c1ccc(C)cc1N1C(=O)CS/C1=N\C(=O)Nc1ccc(CNc2ncn(-c3ccc(OC(F)(F)F)cc3)n2)cc1 (stereo not shown) [F1, (Z)-1-(3-(2-(1-Methoxyethyl)-5-methylphenyl)-4-oxothiazolidin-2-ylidene)-3-(4-(((1-(4-(trifluoromethoxy)phenyl)-1H-1,2,4-triazol-3-yl)amino)methyl)phenyl)urea]	50 to 100	50 to 100
	CCCc1ccc(C)cc1N1C(=O)CS/C1=N\C(=O)Nc1ccc(NCc2ncn(-c3ccc(OC(F)(F)F)cc3)n2)cc1 [F29, (Z)-1-(3-(5-Methyl-2-propylphenyl)-4-oxothiazolidin-2-ylidene)-3-(4-(((1-(4-(trifluoromethoxy)phenyl)-1H-1,2,4-triazol-3-yl)methyl)amino)phenyl)urea]	50 to 100	50 to 100
	COCc1ccc(C)cc1N1C(=O)CS/C1=N\C(=O)Nc1ccc(CN(C)c2ncn(-c3ccc(OC(F)(F)F)cc3)n2)cc1F [F17, (Z)-1-(2-Fluoro-4-((methyl(1-(4-(trifluoromethoxy)phenyl)-1H-1,2,4-triazol-3-yl)amino)methyl)phenyl)-3-(3-(2-(methoxymethyl)-5-methylphenyl)-4-oxothiazolidin-2-ylidene)urea]	50 to 100	50 to 100
